# From ChEMBL document CHEMBL3039007, “Structure-based identification of OATP1B1/3 inhibitors” (Mol Pharmacol, 2013)
# Tests used:
# [1] = biological target: T1, Solute carrier organic anion transporter family member 1B3 (Homo sapiens, UniProt Q9NPD5); conditions: chinese hamster, cho, 10 µM
# T1 sequence (Q9NPD5 whole entry): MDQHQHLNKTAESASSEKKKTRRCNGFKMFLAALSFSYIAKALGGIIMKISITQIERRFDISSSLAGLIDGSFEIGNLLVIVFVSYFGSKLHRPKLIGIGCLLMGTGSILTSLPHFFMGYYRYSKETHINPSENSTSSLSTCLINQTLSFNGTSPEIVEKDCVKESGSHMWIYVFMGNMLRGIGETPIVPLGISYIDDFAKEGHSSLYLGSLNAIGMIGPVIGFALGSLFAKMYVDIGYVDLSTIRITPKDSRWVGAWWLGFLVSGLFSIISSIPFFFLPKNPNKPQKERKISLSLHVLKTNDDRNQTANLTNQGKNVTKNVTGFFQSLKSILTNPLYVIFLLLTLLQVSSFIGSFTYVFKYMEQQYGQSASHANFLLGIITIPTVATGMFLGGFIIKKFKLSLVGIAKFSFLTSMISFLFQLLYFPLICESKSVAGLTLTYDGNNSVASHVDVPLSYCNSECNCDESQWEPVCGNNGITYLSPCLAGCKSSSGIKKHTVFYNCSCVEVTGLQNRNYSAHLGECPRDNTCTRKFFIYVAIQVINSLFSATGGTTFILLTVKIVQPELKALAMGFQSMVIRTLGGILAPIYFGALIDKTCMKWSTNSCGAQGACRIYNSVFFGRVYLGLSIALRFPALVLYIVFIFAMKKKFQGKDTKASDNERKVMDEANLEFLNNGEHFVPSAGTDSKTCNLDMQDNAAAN
# [2] = biological target: T2, Solute carrier organic anion transporter family member 1B1 (Homo sapiens, UniProt Q9Y6L6); conditions: chinese hamster, cho, 10 µM
# T2 sequence (Q9Y6L6 whole entry): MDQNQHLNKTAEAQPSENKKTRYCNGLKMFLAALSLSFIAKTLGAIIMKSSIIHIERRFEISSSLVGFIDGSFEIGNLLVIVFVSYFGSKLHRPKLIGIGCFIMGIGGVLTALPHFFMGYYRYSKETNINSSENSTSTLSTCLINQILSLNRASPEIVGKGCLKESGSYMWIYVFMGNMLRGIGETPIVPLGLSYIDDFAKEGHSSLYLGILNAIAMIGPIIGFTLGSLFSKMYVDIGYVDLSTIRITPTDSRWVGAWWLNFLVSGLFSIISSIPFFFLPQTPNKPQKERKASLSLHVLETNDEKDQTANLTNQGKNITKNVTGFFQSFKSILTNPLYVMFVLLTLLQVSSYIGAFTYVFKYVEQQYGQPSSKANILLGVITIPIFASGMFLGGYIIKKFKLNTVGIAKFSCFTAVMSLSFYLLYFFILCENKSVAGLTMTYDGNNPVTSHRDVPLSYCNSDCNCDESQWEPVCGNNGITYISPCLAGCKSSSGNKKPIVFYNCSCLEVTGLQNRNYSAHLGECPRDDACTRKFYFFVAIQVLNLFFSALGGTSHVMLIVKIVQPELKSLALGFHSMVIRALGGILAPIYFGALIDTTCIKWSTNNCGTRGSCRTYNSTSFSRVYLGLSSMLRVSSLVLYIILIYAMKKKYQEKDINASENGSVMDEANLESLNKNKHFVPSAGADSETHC
residual activity [1],residual activity [2],SMILES
76.5%,83.77%,Cc1ccc(/C(=C\CN2CCCC2)c2ccccn2)cc1.Cl
105.8%,89.48%,NC(Cc1c[nH]cn1)C(=O)Nc1ccc2ccccc2c1 (stereo not drawn)
70.51%,146.4%,CN1CCN(CCCN2c3ccccc3Sc3ccc(C(F)(F)F)cc32)CC1.Cl
115%,85.37%,COC(=O)[C@H](Cc1ccccc1)NC(=O)[C@@H](N)CC(=O)O
37.72%,63.61%,CC(=O)Oc1cc2c(c(C)c1OC(C)=O)CC1OC13[C@@]2(C)CC[C@@]1(C)C2C[C@](C)(C(=O)O)CC[C@]2(C)CC[C@]31C (stereo partly drawn)
54.33%,110.5%,C=N[C@@H](C(=O)N[C@@H]1C(=O)N2[C@@H]1SC(C)(C)[C@@H]2C(=O)[O-])c1ccccc1.[Na+]
13.7%,47.56%,CC(=O)Oc1cc2c(c(C)c1OC(C)=O)CC=C1[C@]2(C)CC[C@]2(C)[C@@H]3C[C@](C)(C(=O)O)CC[C@]3(C)CC[C@@]12C
88.12%,68.86%,COC(=O)C[C@H]1C(C)(C)[C@]2(Cl)O[C@@]34CC2C(=O)[C@]1(C)C3CC[C@]1(C)C4=CC(=O)O[C@H]1c1ccoc1 (stereo partly drawn)
100.4%,70.42%,O=C1CC[C@]23/C=C/C(=O)NCCCCNCCCNC(=O)/C=C\c4ccc(c2c4)O[C@@H]3C1
80.85%,61.16%,CC(C)c1c(O)ccc2c1CCC1[C@@](C)(C(=O)O)CCC[C@]21C (stereo partly drawn)
78.26%,48.6%,C=C[C@@](C)(O)CC[C@H]1C(=C)C[C@H](O)[C@H]2C(C)(C)CCC[C@]12C
105.9%,122.8%,CC[C@H](C)[C@@H](NC)C(=O)O
106%,105.1%,O[C@@H]1[C@@H](O)[C@@H]2OC[C@@H](O2)[C@H]1O
97.89%,80.54%,CC(=O)O[C@@H]1CC(=O)[C@]2(C)[C@H]3CC[C@@]4(C)[C@H](c5ccoc5)OC(=O)[C@H]5O[C@]54[C@]3(C)C(=O)C[C@H]2C1(C)C
103.7%,112.3%,CC(=O)O[C@H]1CC[C@]2(C)[C@H]3CC[C@@H]4[C@@H]5CC(C)(C)CC[C@]5(C(=O)O)CC[C@@]4(C)[C@]3(C)CC[C@H]2C1(C)C
61.85%,76.63%,CCCCCCCCCCCC[C@@H](C(=O)O)[C@H](C)C(=O)O
105.3%,67%,CC(=O)O[C@@H]1C[C@H]2C(C)(C)CCC(=O)[C@]2(C)[C@H]2CC[C@@]3(C)[C@H](c4ccoc4)OC(=O)[C@H]4O[C@]43[C@@]21C
97.12%,32.74%,COC(=O)[C@H]1OC(=O)[C@H]2O[C@]23[C@]2(C)[C@H](CC[C@]13C)[C@]1(C)CCC(=O)C(C)(C)[C@@H]1C[C@H]2OC(C)=O
91.96%,93.14%,CC(=O)N[C@H]1[C@H]([C@@H](O)[C@H](O)CO)O[C@@](O)(C(=O)O)C[C@@H]1O
71.26%,55.59%,COc1ccc(/C=C/C(=O)Nc2ccccc2C(=O)O)cc1OC
88.13%,84.54%,CC(=O)c1cc2c(cc1O)OC(C)(C)C=C2
100.9196%,94.19%,CO[C@H]1C=C[C@@]23c4cc5c(cc4CN(C[C@@H]2O)[C@H]3C1)OCO5
69.61%,78.63%,Nc1nc(N)c2nc(-c3ccccc3)c(N)nc2n1

# Continued, compound first:
SMILES,residual activity [1],residual activity [2]
COc1cc(OC)c(OC)cc1C=O,59.17%,48.71%
Cl.OCCN1CCN(CCCN2c3ccccc3Sc3ccc(C(F)(F)F)cc32)CC1,93.03%,153.1%
COc1cccc(C=O)c1OC,100.4%,107.3%
c1ccc2c(c1)cc1ccc3cccc4ccc2c1c34,70.45%,74.44%
NC[C@H]1O[C@H](O[C@H]2[C@H](O[C@@H]3O[C@H](CO)[C@@H](O)[C@H]3O)[C@@H](O)[C@H](N)C[C@@H]2N)[C@H](N)[C@@H](O)[C@@H]1O.O=S(=O)(O)O,98.01%,107.3%
C[C@@H]1C[C@H]2CC(=O)[C@H]3CCCN4CCCC2[C@]34C1.[O-][Cl+3]([O-])([O-])O (stereo partly drawn),106.7%,104.6%
COC(=O)CCC(=O)O[C@H]1CC[C@@]2(C)[C@@H](CC[C@@H]3[C@@H]2C(=O)[C@@H](O)[C@]2(C)C4C(C[C@@H]32)O[C@@]2(CCC(C)CO2)[C@H]4C)C1 (stereo partly drawn),83.53%,131.1%
C[C@H](C(=O)O)[C@H]1CC[C@H]2[C@@H]3CC=C4C[C@@H](O)CC[C@]4(C)[C@H]3CC[C@]12C,83.58%,71.16%
CC(C)CCC[C@@H](C)[C@H]1CC[C@H]2[C@@H]3CC[C@H]4CCCC[C@]4(C)[C@H]3CC[C@]12C,103.3%,88.28%
CC(C)CCC[C@@H](C)[C@H]1CC[C@H]2C3=CC[C@H]4C[C@@H](O)CC[C@]4(C)[C@H]3CC[C@]12C,99.24%,85.16%
CC[C@H](/C=C/[C@@H](C)[C@H]1CC[C@H]2[C@@H]3CCC4=CC(=O)CC[C@]4(C)[C@H]3CC[C@]12C)C(C)C,88.84%,89.99%
CC(=O)O[C@H]1CC[C@]2(C)C3=C(CC[C@H]2C1(C)C)[C@]1(C)CC[C@H]([C@H](C)CCC=C(C)C)[C@@]1(C)CC3,93.79%,54.67%
O=c1cccc2n1C[C@@H]1C[C@H]2CN2CCCC[C@H]12.[O-][Cl+3]([O-])([O-])O,98.01%,88.32%
CC(=O)OCC(=O)[C@@]1(O)CC[C@H]2[C@@H]3CC[C@H]4CC(OC(C)=O)CC[C@]4(C)[C@H]3C(=O)C[C@@]21C (stereo partly drawn),97.61%,99.36%
CCC(C)C(=O)O[C@@H]1C[C@]2(C)[C@H](c3ccoc3)OC(=O)CC23OC2(C)OC34[C@H](OC(=O)C(C)C)[C@@]3(O)[C@@H](OC(=O)[C@]5(C)O[C@H]5C)[C@]5(C)C[C@@]3(O)[C@@](C)([C@H]5CC(=O)OC)C14O2 (stereo partly drawn),0.6163%,-0.3887%
C[C@@H]([C@H]1OC(C)(C)[C@@H](O)[C@H]1O)[C@@H]1CC[C@]2(C)C3=CC[C@H]4C(C)(C)C(=O)CC[C@]4(C)[C@H]3CC[C@@]12C,98.76%,77.68%
O=C1CCC[C@@H]2[C@H]3C[C@@H](CN12)[C@@H]1CCCCN1C3.[O-][Cl+3]([O-])([O-])O,104.5%,115.5%
CC(=O)O[C@H]1CC[C@@]2(C)[C@@H](CC[C@H]3[C@@H]4CC=C(C(C)=O)[C@@]4(C)C(=O)C[C@@H]32)C1,85.5%,81.91%
C[C@]12CC[C@H](Cl)C[C@@H]1CC[C@@H]1[C@@H]2CC[C@]2(C)C(=O)CC[C@@H]12,70.61%,67.79%
CC(=O)OCC1=C(C(=O)[O-])N2C(=O)[C@@H](NC(=O)CCC[C@@H](N)C(=O)O)[C@H]2SC1.[Na+],103.2%,89.78%
CN[C@H]1C[C@@H](N)[C@H](O)[C@@H](O[C@@H]2O[C@H](CO)[C@H](O)[C@H]3O[C@@]4(O[C@H]23)O[C@H]([C@H](N)CO)[C@H](O)[C@H](O)[C@H]4O)[C@@H]1O,91.81%,103.7%
